Measurements from patent US11279681B2, “3-alkyl bicyclic [4,5,0] hydroxamic acids as HDAC inhibitors” (Valo Health, Inc., priority 2015, dated 2022).

Biological target: T1, HDAC6 (Homo sapiens, UniProt Q9UBN7)
T1 sequence (Q9UBN7 1-1215): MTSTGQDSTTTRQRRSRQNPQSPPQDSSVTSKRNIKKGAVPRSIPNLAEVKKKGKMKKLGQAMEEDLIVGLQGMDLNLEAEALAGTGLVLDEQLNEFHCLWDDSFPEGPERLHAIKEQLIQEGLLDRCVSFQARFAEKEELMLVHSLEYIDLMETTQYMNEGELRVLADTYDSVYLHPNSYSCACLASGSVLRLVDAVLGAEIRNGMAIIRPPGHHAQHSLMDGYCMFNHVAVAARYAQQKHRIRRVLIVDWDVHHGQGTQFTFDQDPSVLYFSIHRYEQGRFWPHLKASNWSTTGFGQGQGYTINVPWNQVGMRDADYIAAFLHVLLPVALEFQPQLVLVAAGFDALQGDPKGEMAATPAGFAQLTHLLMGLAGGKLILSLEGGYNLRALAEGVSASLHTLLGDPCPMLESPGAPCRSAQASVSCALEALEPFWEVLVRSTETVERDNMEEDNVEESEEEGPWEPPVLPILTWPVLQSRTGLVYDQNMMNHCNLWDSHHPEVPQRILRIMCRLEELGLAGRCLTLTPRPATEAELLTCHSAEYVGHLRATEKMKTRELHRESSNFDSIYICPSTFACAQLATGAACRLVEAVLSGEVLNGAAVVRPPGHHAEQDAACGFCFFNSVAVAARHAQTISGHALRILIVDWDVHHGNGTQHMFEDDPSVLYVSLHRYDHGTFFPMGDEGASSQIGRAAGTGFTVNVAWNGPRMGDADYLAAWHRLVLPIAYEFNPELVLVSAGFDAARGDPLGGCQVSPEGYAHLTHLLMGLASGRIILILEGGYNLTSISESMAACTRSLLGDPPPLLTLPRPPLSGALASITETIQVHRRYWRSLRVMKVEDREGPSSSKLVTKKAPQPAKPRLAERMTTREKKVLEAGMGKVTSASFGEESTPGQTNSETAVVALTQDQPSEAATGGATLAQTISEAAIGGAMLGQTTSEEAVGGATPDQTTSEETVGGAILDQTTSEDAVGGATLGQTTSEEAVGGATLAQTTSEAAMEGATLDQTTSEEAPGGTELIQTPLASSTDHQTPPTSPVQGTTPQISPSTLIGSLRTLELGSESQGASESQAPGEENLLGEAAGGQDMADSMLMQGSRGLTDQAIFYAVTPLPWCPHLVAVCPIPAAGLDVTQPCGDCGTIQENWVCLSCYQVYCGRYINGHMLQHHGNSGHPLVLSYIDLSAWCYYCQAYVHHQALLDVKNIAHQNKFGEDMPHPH
Assay: In vitro histone deacetylase assay: enzymatic HDAC6 electrophoretic mobility shift assay
Type: biochemical
Settings: full length human recombinant HDAC6, 1 nM enzyme, 2 μM peptide substrate RHKK(Ac)-NH2, 25° C.; read-out: Inhibitory Concentration (IC50) Values for Representative Compounds against HDAC6, Activity Range
Method: The enzymatic HDAC6 assay was performed using electrophoretic mobility shift assay. […] The enzymatic reactions were assembled in 384 well plates in a total volume of 25 μL in a reaction buffer composing: 100 mM HEPES, pH7.5, 25 mM KCl, 0.1% bovine serum albumin, 0.01% Triton X-100, 1% DMSO (from compounds) 2 μM of the fluorescently labeled peptide substrate and enzyme. The enzyme was added at a final concentration of 1 nM. The peptide substrate RHKK(Ac)-NH2 was used. The compounds were tested at 12 concentrations spaced by 3× dilution intervals. Negative control samples (0%-inhibition in the absence of inhibitor) and positive control samples (100%-inhibition) were assembled in replicates of four in each assay plate. The reactions were incubated at 25° C. and quenched by the addition of 45 μL of termination buffer (100 mM HEPES, pH 7.5, 0.01% Triton X-100, 0.05% SDS).
The terminated assay plates were analyzed on LabChip® 3000 microfluidic electrophoresis instrument (Perkin Elmer/Caliper Life Sciences). The fluorescence intensity of the electrophoretically separated de-acetylated product and substrate peptide was measured. Activity in each sample was determined as the product to sum ratio (PSR): P/(S+P), where P is the peak height of the product peptide and S is the peak height of the substrate peptide. Percent inhibition (Pinh) is determined using the following equation:
Pinh=(PSR0%−PSRinh)/(PSR0%−PSR100%)*100, where PSRinh is the product sum ratio in the presence of inhibitor, PSR0% is the average product sum ration in the absence of inhibitor and PSR100% is the average product sum ratio in 100%-inhibition control samples. The IC50 values of inhibitors were determined by fitting the %-inhibition curves with 4 parameter dose-response model using XLfit 4 software.

Compound | IC50
COC[C@@H]1COc2cc(C(=O)NO)ccc2CN1c1ccccc1 [(R)-N-hydroxy-3-(methoxymethyl)-4-phenyl-2,3,4,5-tetrahydrobenzo[f][1,4]oxazepine-8-carboxamide] | 100 to 500 nM
COC[C@@H]1COc2cc(C(=O)NO)ccc2CN1Cc1ccc(OC)cc1 [(R)-N-hydroxy-4-(4-methoxybenzyl)-3-(methoxymethyl)-2,3,4,5-tetrahydrobenzo[f][1,4]oxazepine-8-carboxamide] | ≤ 100 nM
COc1ccc(CN2CCOc3cc(C(=O)NO)ccc3[C@H]2C)cc1 [(R)-N-hydroxy-4-(4-methoxybenzyl)-5-methyl-2,3,4,5-tetrahydrobenzo[f][1,4]oxazepine-8-carboxamide] | > 500 nM
C[C@@H]1CN(C)Cc2ccc(C(=O)NO)cc2O1 [(R)—N-hydroxy-2,4-dimethyl-2,3,4,5-tetrahydrobenzo[f][1,4]oxazepine-8-carboxamide] | > 500 nM
C[C@@H]1CNCc2ccc(C(=O)NO)cc2O1 [(R)—N-hydroxy-2-methyl-2,3,4,5-tetrahydrobenzo[f][1,4]oxazepine-8-carboxamide] | > 500 nM
C[C@@H]1COc2cc(C(=O)NO)ccc2CN1C [(R)—N-hydroxy-3,4-dimethyl-2,3,4,5-tetrahydrobenzo[f][1,4]oxazepine-8-carboxamide] | ≤ 100 nM
C[C@@H]1COc2cc(C(=O)NO)ccc2CN1 [(R)—N-hydroxy-3-methyl-2,3,4,5-tetrahydrobenzo[f][1,4]oxazepine-8-carboxamide] | 100 to 500 nM
O=C(NO)c1ccc2c(c1)OC[C@H](Cc1ccccc1)N(C(=O)N1CCOCC1)C2 [(S)-3-benzyl-N-hydroxy-4-(morpholine-4-carbonyl)-2,3,4,5-tetrahydrobenzo[f][1,4]oxazepine-8-carboxamide] | ≤ 100 nM
CC[C@H]1COc2cc(C(=O)NO)ccc2CN1Cc1ccc(OC)cc1 [(S)-3-ethyl-N-hydroxy-4-(4-methoxybenzyl)-2,3,4,5-tetrahydrobenzo[f][1,4]oxazepine-8-carboxamide] | ≤ 100 nM
CC[C@H]1COc2cc(C(=O)NO)ccc2CN1c1ccccc1C [(S)-3-ethyl-N-hydroxy-4-(o-tolyl)-2,3,4,5-tetrahydrobenzo[f][1,4]oxazepine-8-carboxamide] | ≤ 100 nM
CC[C@H]1COc2cc(C(=O)NO)ccc2CN1C [(S)-3-ethyl-N-hydroxy-4-methyl-2,3,4,5-tetrahydrobenzo[f][1,4]oxazepine-8-carboxamide] | ≤ 100 nM
CC[C@H]1COc2cc(C(=O)NO)ccc2CN1c1ccccc1 [(S)-3-ethyl-N-hydroxy-4-phenyl-2,3,4,5-tetrahydrobenzo[f][1,4]oxazepine-8-carboxamide] | ≤ 100 nM
C[C@H]1COc2cc(C(=O)NO)ccc2CN1c1ccccc1Cl [(S)-4-(2-chlorophenyl)-N-hydroxy-3-methyl-2,3,4,5-tetrahydrobenzo[f][1,4]oxazepine-8-carboxamide] | ≤ 100 nM
C[C@H]1COc2cc(C(=O)NO)ccc2CN1c1ccccc1F [(S)-4-(2-fluorophenyl)-N-hydroxy-3-methyl-2,3,4,5-tetrahydrobenzo[f][1,4]oxazepine-8-carboxamide] | ≤ 100 nM
C[C@H]1COc2cc(C(=O)NO)ccc2CN1C(=O)N1CCOc2ccccc21 [(S)-4-(3,4-dihydro-2H-benzo[b][1,4]oxazine-4-carbonyl)-N-hydroxy-3-methyl-2,3,4,5-tetrahydrobenzo[f][1,4]oxazepine-8-carboxamide] | ≤ 100 nM
C[C@H]1COc2cc(C(=O)NO)ccc2CN1c1cccc(F)c1 [(S)-4-(3-fluorophenyl)-N-hydroxy-3-methyl-2,3,4,5-tetrahydrobenzo[f][1,4]oxazepine-8-carboxamide] | ≤ 100 nM
C[C@H]1COc2cc(C(=O)NO)ccc2CN1c1ccc(Cl)cc1 [(S)-4-(4-chlorophenyl)-N-hydroxy-3-methyl-2,3,4,5-tetrahydrobenzo[f][1,4]oxazepine-8-carboxamide] | ≤ 100 nM
C[C@H]1COc2cc(C(=O)NO)ccc2CN1Cc1ccc(F)cc1 [(S)-4-(4-fluorobenzyl)-N-hydroxy-3-methyl-2,3,4,5-tetrahydrobenzo[f][1,4]oxazepine-8-carboxamide] | ≤ 100 nM
